What was measured:
[1] = Ligand facilitated Fe(III) efflux from liposomes; format: biochemical; parameters: unit not given here; details: efflux rate k at 10 μM ligand concentration; ferrozine absorbance 562 nm, 120 min kinetic read
Procedure: Assay 1: Ligand Facilitated Fe(III) Efflux from Liposomes
Preparation of POPC (1 palmitoyl-2-oleoyl-sn-glycero-3 phosphocholine): Cholesterol Liposomes
A 1M buffer solution of MES and Tris was prepared by dissolving 121.14 grams of Tris base and 213.25 grams of MES hydrate in 500 mL of MilliQ water and adjusted to pH7.0 using an […] HCl solution before bringing the total volume of the solution to 1 L. A 500 mM solution of FeCl3 was prepared by dissolving 0.811 grams of anhydrous FeCl3 in 10 mL of a 0.1M H2SO4 aqueous solution. Inside buffer is prepared in a 50 mL falcon tube, which was added with 25 mL of MilliQ water, 1.61 g of sodium citrate, 1.5 mL of the above FeCl3 solution, and 2.5 mL of the 1M MES/Tris HCl buffer (pH=7.0), and finally additional MilliQ H2O to bring to a 50 mL final volume.
Lipid solution is prepared by dissolving 206.9 mg of POPC (1-palmitoyl-2-oleoyl-sn-glycero-3-phosphocholine) and 8.6 mg of cholesterol in 10 mL of ethanol.
The lipids solution and the inside buffer solution are independently loaded into 10 mL luer lock syringes for loading into a virgin cartridge on a Precision Nanosystems NanoAssembler to prepare unilamaller liposomes with the following parameters: 7.5 mL total volume, 1.5:1 mixing ratio of inside buffer:lipids solution, 8 mL/min flow rate, ambient temperature, 0.35 mL start waste, and 0.05 mL of end waste. 7.5 mL of liposomes is harvested for purification on a 6-inch long, 1-inch diameter Sephadex G-50 column wetted in 600 mM sodium ascorbate and 50 mM MES/Tris HCl pH 7.0 buffer. This buffer also serves as the column running buffer. The crude liposome solution is carefully loaded with minimal volume of running buffer above the top of the Sphadex, allowed to enter the matrix, and the column is run with the continued addition of running buffer. The eluting liposomes, observed as a milky and turbid solution, are collected until free iron begins to elute (observed as a deep purple color) and the fractions are pooled for phosphorus quantitation.
Determination of Phosphorus Content:
Phosphorus content of eluted liposomes was determined by the process outlined below. 10 μL of liposome elution and a running buffer blank are added to a 5 mL glass vial containing 450 μL of a 8.9 M aqueous H2SO4 solution, the mixture is heated to 225° C. for 25 minutes in an aluminum heat block to hydrolyze POPC and cooled for 5 minutes. 200 μL of a 30% hydrogen peroxide aqueous solution is added to each vial and heated to 225° C. for 25 minutes. After cooling, the phosphorus content was determined using an Abcam Phosphate Assay kit, with buffer subtracted phosphorus levels determined against a standard curve of phosphate included in the kit. Liposomes were diluted to 1 mM phosphate in Running Buffer for use in assays after accounting for dilutions made during phospholipid digestion.
Determination of the Iron Transporting Rate Constant of the Ligands:
Determination of the rate at which a small molecule ligand liberates (transport) Ferric iron from liposomes is performed in clear bottom black 384-well plates on a Spectramax i3x set to read the absorbance at 562 nm in the kinetic mode every 60 seconds for 120 minutes. 1 μL of serially diluted DMSO stock solution of a small molecule ligand is added to wells in triplicate to give the final concentrations of 40, 20, 10, 5, 2.5, and 1.25 uM of the ligand at 80 μL final volume, followed by addition of 1 μL of 100 mM Ferrozine in water to give a final concentration of 1 mM ferrozine. 78 μL of liposomes diluted to 1 mM phosphorus in running buffer is added to wells as quickly as possible (using a digital repeater multichannel pipette) with the kinetic read initiated as rapidly as possible after addition of liposomes to all wells. Typically, eight compounds at six concentrations are tested in triplicate simultaneously. […]

[2] = test system: DMT1-deficient Caco-2 cells; test: shDMT1-Caco2 55Fe transport assay; format: cell-based; details: Caco-2
Text: Assay 2: shDMT1-Caco2 ^55Fe Transport Assay to Assess Ligand Ability in Transporting Fe (III)
Cells: DMT1-deficient Caco-2 cells (alias: “shDMT1,” or “4A” cells) were from Grillo et al. Science, 2017, and were cryopreserved in liquid nitrogen prior to use.
Reagents and supplies: ^55FeCl3 was obtained from PerkinElmer (Boston, MA). Iron(III) chloride (FeCl3) hexahydrate was obtained from Sigma. Dulbecco's Modified Eagle Medium (DMEM), fetal bovine serum (FBS), L-glutamine, MEM nonessential amino acids, penicillin-streptomycin, G418, formic acid, methanol, high-purity water, ammonium formate, dimethyl sulfoxide (DMSO) were purchased from Fisher Scientific. Propranolol, atenolol and carbutamide were obtained from Sigma-Aldrich Chemical Company (St Louis, MO). Scintillation cocktail was obtained from Research Product International Co. (Mount Prospect, IL). Stericup filter system (PES membrane, 0.22 um pore size) was purchased from Fisher Scientific. Corning item #3378 24-well transwell insert plates.
Test articles: known compounds hinokitiol and deferiprone were purchased from Sigma. They are tested side by side with the small molecule ligands disclosed in this application. DMSO stocks (10 mM, which is 1,000× of the 10 μM dose level) of hinokitiol or test articles were prepared. A stock solution of 25 mM deferiprone in DMSO was prepared. The DMSO stock solutions were stored at −20° C. or below when not in use.
The growth medium was prepared according to the following table
Apical media (serum free DMEM, 10 mM MES, pH 6.5) was prepared. Apical master mix media was prepared fresh with the addition of 200 nM ^55Fe before each experiment. For the negative control propranolol and atenolol wells, 200 nM of non-radioactive iron was used.
The basolateral media was serum-free DMEM, 10 mM HEPES, 2% bovine serum albumin (BSA), pH 7.4.
For each experiment, cells were seeded into the 24-well transwell plates (0.5 mL of 50,000 cells/mL) with growth media. The basolateral companion plate was loaded with 1 mL of growth media. After 12-24 hr, both the apical and basolateral chamber were replaced with growth media. The apical media was changed 3× per week for 21-28 days, including a media change exactly 48 hr before the assay date.
On the assay day, the TEER values were measured and the average TEER value was obtained. Individual wells with TEER value >35% lower than the average of all wells were excluded. For the qualified wells, the apical layer (twice) and basolaterial (once) chambers were washed with PBS. The basolateral companion plate was then filled with 1 mL of basolateral media. Via addition down the side-wall of the apical well, 300 μL per well of the apical assay master mix, with the indicated dose level of test article, was added. Each dose was tested in triplicate. The plates were incubated (5% CO2 and 90% humidity at 37° C.) for the indicated timepoints. At each indicated timepoint, the basolateral supernatant was gently mixed via pipetting, and 200 μL of the basolateral supernatant was transferred to scintillation vials. To each scintillation counting vial, 5 mL of scintillation cocktail fluid was added. For each scintillation vial, the radioactivity (CPM) was determined with liquid scintillation counter LS6500. The counting time per vial was 5 min.
All raw CPM values are divided by the average value of blank DMSO solution to give a fold of change above the DMSO value. The mean and standard deviation of each compound at each concentration level and at each time point measured was calculated to give the fold change (fc) value. For rank order compounds, the fc value of a ligand at 4 h time point is further divided by the fold change (fc) value of hinokitiol (a positive control compound) at an equimolar concentration to arrive at the FC (normalized fold of change) value. Data reported in Tables 1 and 2 is 4 hr time point FC=fc-ligand @ 3 uM/fc-hino @ 3 μM, and FC hino=1.

Caco2 shDMT1 transport FC @ 3 μM, 4 h [2] | SMILES | Liposome Fe transport kefflux at 10 μM [1]
0.01-0.5 | O=c1ccccc(OC2COC2)c1O | 0.1-5
0.01-0.5 | CC(C)c1ccc(F)c(=O)c(O)c1F | 7.5-10
0.01-0.5 | Cc1cccc(Cl)c(=O)c1O | 5-7.5
0.01-0.5 | CCc1ccc(O)c(=O)c(F)c1 | 0.1-5
1-5 | CCc1cc(F)ccc(=O)c1O | 7.5-10
0.01-0.5 | CCc1cccc(Cl)c(=O)c1O | 7.5-10
0.01-0.5 | O=c1c(O)ccc(OC2CCC2)cc1F | 10-25
1-5 | O=c1ccccc(OC2CC(F)(F)C2)c1O | 7.5-10
1-5 | O=c1cccc(OC2CC2)cc1O | 5-7.5
0.01-0.5 | O=c1cccc(O[C@@H]2CCOC2)cc1O (stereo in doubt) | 0.1-5
0.02-0.03 | Cc1c(O)c(=O)ccn1C [deferiprone, reference compound] | 0
0.01-0.5 | CC(C)c1ccc(F)c(=O)c(O)c1 [drawing 176] | 10-25
0.01-0.5 | CC(C)c1cccc(=O)c(O)c1F [drawing 177] | 10-25
0.01-0.5 | CC(C)c1cccc(F)c(=O)c1O [drawing 179] | 10-25
0.01-0.5 | O=c1cccc(C2CC3CCC(C2)O3)cc1O (stereo not shown) [drawing 181] | 7.5-10
1-5 | O=c1ccccc(C2CCOCC2)c1O [drawing 183] | 0.1-5
0.01-0.5 | O=c1ccc(OC2COC2)ccc1O [drawing 187] | 5-7.5
0.01-0.5 | CCc1cccc(C)c(=O)c1O [drawing 202] | 5-7.5
1-5 | Cc1cc(C(C)C)ccc(O)c1=O [drawing 203] | 10-25
0.5-1 | Cc1cccc(C(C)C)c(O)c1=O [drawing 205] | 5-7.5
0.01-0.5 | Cc1cccc(F)c(=O)c1O [drawing 207] | 10-25
0.01-0.5 | O=c1c(O)cc(C2CC2)ccc1F [drawing 209] | 7.5-10
0.01-0.5 | O=c1c(F)cccc(C2CCOCC2)c1O [drawing 211] | 5-7.5
0.01-0.5 | O=c1ccccc(OC2CCC2)c1O [drawing 233] | 7.5-10
1-5 | O=c1ccccc(OC2CC3(CC3)C2)c1O [drawing 259] | 10-25
1-5 | O=c1ccccc(OCC2CC2)c1O [drawing 260] | 10-25

From patent US20230406803A1, “TROPOLONE DERIVATIVES AND TAUTOMERS THEREOF FOR IRON REGULATION IN ANIMALS” (Kinesid Therapeutics, Inc, priority 2020, published 2023)
